These results are taken from article PMC3909880 (Nature communications, 2013).

The test system of test [1] is M. tuberculosis H37Rv. The test is described as follows: microbe, parasite or virus in culture. Type of test: cell-based, Mycobacterium tuberculosis. As to conditions: for MIC: Mycobacterium tuberculosis, H37RV, read-out: MIC for H37Rv; for MIC for H37Rv: M. tuberculosis H37Rv parental strain.
The subject of test [2] is M. tuberculosis H37Rv. Type of test: in vivo, Mycobacterium tuberculosis. Conditions: 10 mg/kg oral gavage daily (5 days per week), BALB/c mice.
Test [3] concerns M. tuberculosis strains H37Rv, V4207, V2475, KZN494, TF274, R506. Conditions: MDR strains V2475 and KZN494; cited from earlier work.

Converted amounts (≈) assume the structure as drawn.

`NCC[C@H](O)C(=O)N[C@@H]1C[C@H](N)[C@@H](O[C@H]2O[C@H](CN)[C@@H](O)[C@H](O)[C@H]2O)[C@H](O)[C@H]1O[C@H]1O[C@H](CO)[C@@H](O)[C@H](N)[C@H]1O` [Amikacin]: the MIC with M. tuberculosis H37Rv [1] was 1 µg/mL (≈ 1.71 µM).
On the same count and under the same terms, the value for `CC[C@@H](CO)NCCN[C@@H](CC)CO` [Ethambutol] was 1 µg/mL (≈ 4.89 µM).
Regarding `NNC(=O)c1ccncc1` [Isoniazid], the MIC in the test with M. tuberculosis H37Rv [1] was determined as 0.04 µg/mL (≈ 0.292 µM). Besides, in the test with M. tuberculosis H37Rv [2], the “Mean lung CFU counts (standard deviation), Day 7” value is recorded as 5.508 (0.124) log10 CFU/lung; the “Mean lung CFU counts (standard deviation), Day 14” value was 5.266 (0.089) log10 CFU/lung; the “Mean lung CFU counts (standard deviation), Day 28” value is 4.561 (0.088) log10 CFU/lung. The “Susceptibility of the MDR strains” value in test [3] is given as “resistant”.
Turning to `NC[C@H]1O[C@H](O[C@H]2[C@H](O)[C@@H](O[C@H]3O[C@H](CO)[C@@H](O)[C@H](N)[C@H]3O)[C@H](N)C[C@@H]2N)[C@H](O)[C@@H](O)[C@@H]1O` [Kanamycin], the “MIC for H37Rv” value in the test with M. tuberculosis H37Rv [1] was found to be 2 µg/mL.
For `C[C@H]1COc2c(N3CCN(C)CC3)c(F)cc3c(=O)c(C(=O)O)cn1c23` [Levofloxacin], the MIC in the test on M. tuberculosis H37Rv [1] stood at 0.25 µg/mL (≈ 0.692 µM).
With `COc1c(N2C[C@@H]3CCCN[C@@H]3C2)c(F)cc2c(=O)c(C(=O)O)cn(C3CC3)c12` [Moxifloxacin], the MIC in the test with M. tuberculosis H37Rv [1] fell in the range of 0.0625 to 0.125 µg/mL (≈ 0.156 to 0.311 µM).
`CO[C@H]1/C=C/O[C@@]2(C)Oc3c(C)c(O)c4c(O)c(c(/C=N/N5CCN(C)CC5)c(O)c4c3C2=O)NC(=O)/C(C)=C\C=C\[C@H](C)[C@H](O)[C@@H](C)[C@@H](O)[C@@H](C)[C@H](OC(C)=O)[C@@H]1C` [Rifampin]: in the test with M. tuberculosis H37Rv [1], the MIC was 0.125 µg/mL (≈ 0.152 µM). Moreover, the “Susceptibility of the MDR strains” value in test [3] is listed as “resistant”.
As for `CC(C)=CCC/C(C)=C/CNCCNC1C2CC3CC(C2)CC1C3` (centres unmarked) [SQ109], the MIC in the test on M. tuberculosis H37Rv [1] was 0.25 µg/mL (≈ 0.756 µM).
As to Capreomycin, the “MIC for H37Rv” value with M. tuberculosis H37Rv [1] worked out at 1 µg/mL.
